# Laboratory results reported in patent US20120088841A1, “COMPOSITION AND A METHOD OF TREATING CNS DISORDERS AND HYPERPIGMENTATION” (priority 2010, published 2012).
# Several values for one entry are separate records, joined by “and”; a condition that tells them apart may be missing. Equal values may be shown once. Read-outs that look alike come from different tables or passages of the source. Marks after values point to notes of the source that are not given here.
# Columns and labels:
# [1] = target: Mushroom Tyrosinase enzyme; experiment: Tyrosinase inhibition; assay type: biochemical; conditions: 40 units Mushroom Tyrosinase, 0.7 mM L-Tyrosine disodium, 37° C.
# Description: Pigmentation is a multistep process critically dependent on the functional integrity of tyrosinase, the rate-limiting enzyme in melanin synthesis. Biosynthesis of melanin is initiated by the catalytic oxidation of tyrosine to 3, 4 dihydroxy phenylalanine (dopa) by tyrosinase. Subsequent reactions happen spontaneously eventually resulting in the synthesis of melanin. Under in vitro conditions, tyrosinase enzyme acts on L-Tyrosine forming a pink colored complex. This pink color intensity formed during the reaction is quenched in the presence of the inhibitor. The assay is performed in a 96 well clear microtitre plate. The compound hydroxychavicol, crude betel leaf extract and the reference standard in suitable vehicle (PBS or 0.2% DMSO) is pre incubated with 40 units of Mushroom Tyrosinase enzyme at 37° C. for 10 minutes. The reaction is initiated by adding 0.7 mM L-Tyrosine disodium and the absorbance is read after 10 minutes of incubation at 37° C. in FluostarOptima microplate reader at 492 nm. The dose dependent inhibitory activity of samples is calculated and the results are expressed as IC50 values using Graphpad prism software.
# [2] = system: B16F1 mouse melanoma cells; experiment: Inhibition of α-MSH induced melanogenesis in B16F1 mouse melanoma cell line; assay type: cell-based; conditions: B16-F1, 216 h, 0.6 nM MSH, 9 days treatment, read-out: Inhibition of MSH induced Melanin IC50
# Experimental: Melanin synthesis can be directly studied in live animal cells. B16F1 mouse melanoma cells were seeded in a 6 well microtiter plate at a seeding density of 5000 cells per well in 2 ml DMEM medium per well. After 24 hours of incubation in a CO2 incubator, melanin production is induced by 0.6 nM […] by replacing the medium with medium containing […]. The cells were then treated with the compound hydroxychavicol, crude betel leaf extract and the reference standard over a period of 9 days with renewal of […] containing medium and sample at regular intervals of 3 days. Control wells were maintained without sample treatment and only with the vehicle used for sample preparation. After the incubation period, the medium was removed and the cells were scraped and washed in PBS. Thereafter, melanin was extracted by 1N NaOH in boiling water bath for 5 minutes. The absorbance of the melanin extract was read at 405 nm in a microplate reader. The inhibitory effect of the samples is calculated based on the decrease of melanin formation. The dose dependent inhibitory activity of samples is calculated and the results are expressed as IC50 values using Graphpad prism software.
# TNF alpha = TNF alpha inhibition invitro (comparative data); assay type: cell-based; conditions: read-out: TNF alpha inhibition (IC50 μg/ml)
# Description: (§1) The results are as tabulated below in table 2.
# [3] = ORAC value (comparative data); conditions: invitro; higher is better
# Description: as §1
# Balb/C mice = conditions: mouse, in vivo, po, 1000 mg/kg
# Experimental: Three female Balb/C mice, fasted 3-4 h prior to the test, were used for each step and observed individually after dosing at least once during the first 30 min, and periodically during the first 24 h, with special attention given during the first 4 h, and daily thereafter, for a total of 14 days.
# CD3+ cell population = experiment: Flow cytometric evaluation of cell-surface marker CD3+ in peripheral blood lymphocytes; assay type: in vivo, rats
# Experimental: (§2) The injection was repeated on day 3.
# (§3) CD3 monoclonal antibody that reacts with the CD3 differentiation antigen expressed on MHC class I T cytotoxic cells as well as MHC class II T helper cells, was used for the determination of activated T cell populations in the blood and CD19 monoclonal antibody that reacts with CD19 antigen expressed on B cells was used for the estimation of B cell population. Tubes were incubated in dark for 30 min at room temperature. Subsequently, 2 ml of 1×FACS lyses solution was added at room temperature with gentle mixing and these samples were then spinned at (300-400×g). The supernatant was aspirated and samples were given 3 washings of phosphate buffer saline (pH 7.4). The resulting stained cell pellet was resuspended in 500 μl of phosphate buffer saline and was run on a flow cytometer. Acquisition and the analysis were done directly on flow cytometer using Cell Quest Pro software (BD Biosciences) (Bani et al., 2005, 2006).
# Malondialdehyde (MDA) = experiment: Measurement of lipid peroxidation (MDA) in brain of ICV STZ rats; conditions: for MDA (LP): brain homogenate, ICV STZ rats (STZ Control 415.21 ± 10.07)
# [4] = system: Reduced glutathione (GSH); experiment: Estimation of reduced glutathione in brain of ICV STZ rats; assay type: in vivo; conditions: for GSH: brain homogenate, ICV STZ rats (STZ Control 223.21 ± 6.08)
# Experimental: as §2
# Reduced glutathione (GSH) in the brain was estimated according to the method described by Ellman (1959). 1 ml supernatant was precipitated with 1 ml of 4% sulfosalicylic acid and cold digested at 4° C. for 1 h. The samples were centrifuged at 1200×g for 15 min at 4° C. To 1 ml of this supernatant, 2.7 ml of phosphate buffer (0.1 M, pH 8) and 0.2 ml of 5,5′-dithiobis-(2-nitrobenzoic acid) (DTNB) were added. The yellow colour developed was read immediately at 412 nm using spectrophotometer. The results were calculated using the molar extinction coefficient of chromophore (1.36×104 M−1 cm−1) and expressed as a percentage of the control.
# IFN-γ = experiment: Estimation of intracellular cytokine IFN-γ in CD3+ T cells; assay type: in vivo, rats
# Experimental: as §2
# Magnetic-bead Assisted Cell Sorting (MACS) separated the CD3+ T cells that were then permeabilised with 500 μl of FACS permeabilising solution (Becton Dickinson) for 10 min at room temperature. With this technique, specific cells that have antibody-coated micro beads are separated under a strong magnetic field magnetically from the whole cell suspension according to their cell-surface antigen. After centrifugation, cells were incubated with anti-rat IFN-γ-PE for 30 min in the dark at room temperature. After washing in PBS, cells were fixed in […] of 1% formaldehyde PBS. A total of 10,000-gated events were acquired in on a FACS BD LSR II flow cytometer (Bani et al., 2005, 2006) and analysis was done on flow cytometer using Cell Quest Pro software (BD Biosciences).
# CD19+ cell population = experiment: Flow cytometric evaluation of cell-surface marker CD19+ in peripheral blood lymphocytes; assay type: in vivo, rats
# Experimental: as §2, §3
# ICV STZ treated rats = experiment: Single trial passive avoidance test after ICV injection of STZ; assay type: in vivo; conditions: for initial latency: day 19, ICV STZ rats; for mean retention latency: day 20, ICV STZ rats (STZ Control 173±28 s)
# Experimental: as §2
# Memory retention deficit was evaluated by a step through passive avoidance apparatus according to the method previously described by Mojard et al. (2007) on days 19th and 20th after 1st injection of STZ. On the acquisition trial, each rat was placed in the lighted chamber and after 60 s of habituation period, the guillotine door separating the lighted and dark chamber was opened, and the initial latency (IL) to enter the dark chamber was recorded. Immediately after the rat entered the dark chamber, the guillotine door was closed and an electric foot shock (75 V, 0.2 mA, 50 Hz) was delivered to the floor grids for 3 s. Five seconds later, the rat was removed from the dark chamber and returned to its home cage. Twenty-four hours later, the retention latency (RL) time was measured in the same way as in the acquisition trial, but foot shock was not delivered, and the latency time was recorded to a maximum of 600 s.
compound,measurement,setting,value
"O=C1O[C@H]([C@@H](O)CO)C(O)=C1O [Ascorbic acid, reference compound]",Tyrosinase inhibition IC50,[1],IC50—9.33 μg/ml
same,IC50,[2],25 µg/mL
C=CCc1ccc(O)c(OC)c1 [Eugenol],IC50,TNF alpha; invitro,114 µg/mL
same,ORAC value (μmol trolox equivalents/g),[3],13921 μmol trolox equivalents/g
CC=Cc1ccc(O)c(OC)c1 [Isoeugenol],IC50,TNF alpha; invitro,515 µg/mL
same,ORAC value (μmol trolox equivalents/g),[3],15248 μmol trolox equivalents/g
"C=CCc1ccc(O)c(O)c1 [HC, Hydroxychavicol]","untoward symptom or mortality, general behaviour",Balb/C mice,No untoward symptom or any mortality
same,IC50,TNF alpha,88.7 µg/mL
same,mean percentage of CD3+ cells in the lymphocyte population,CD3+ cell population; HC 0.5 mg/kg p.o. (STZ Control 62.21±4.65%),51.19±1.78%
same,mean percentage of CD3+ cells in the lymphocyte population,CD3+ cell population; HC 2 mg/kg p.o. (STZ Control 62.21±4.65%),45.28±3.43%
same,mean percentage of CD3+ cells in the lymphocyte population,CD3+ cell population; HC 4 mg/kg p.o. (STZ Control 62.21±4.65%),44.49±4.55%
same,MDA (LP) percentage activity against STZ Control group (suppression),Malondialdehyde (MDA); HC 0.5 mg/kg p.o.,(27.47↓)* %
same,MDA (LP),Malondialdehyde (MDA); HC 0.5 mg/kg p.o.,301.15 ± 6.34 nmol/mg
same,MDA (LP) percentage activity against STZ Control group (suppression),Malondialdehyde (MDA); HC 1.0 mg/kg p.o.,(39.26↓)* %
same,MDA (LP),Malondialdehyde (MDA); HC 1.0 mg/kg p.o.,252.18 ± 4.08 nmol/mg
same,MDA (LP) percentage activity against STZ Control group (suppression),Malondialdehyde (MDA); HC 2.0 mg/kg p.o.,(42.87↓)* %
same,MDA (LP),Malondialdehyde (MDA); HC 2.0 mg/kg p.o.,237.19 ± 3.44 nmol/mg
same,MDA (LP) percentage activity against STZ Control group (suppression),Malondialdehyde (MDA); HC 4.0 mg/kg p.o.,(46.85↓)* %
same,MDA (LP),Malondialdehyde (MDA); HC 4.0 mg/kg p.o.,220.68 ± 4.32 nmol/mg
same,GSH percentage activity against STZ Control group (stimulation),[4]; HC 0.5 mg/kg p.o.,(61.03↑)* %
same,GSH,[4]; HC 0.5 mg/kg p.o.,359.44 ± 5.47 µg/g
same,GSH percentage activity against STZ Control group (stimulation),[4]; HC 1.0 mg/kg p.o.,(62.52↑)* %
same,GSH,[4]; HC 1.0 mg/kg p.o.,362.78 ± 6.24 µg/g
same,GSH percentage activity against STZ Control group (stimulation),[4]; HC 2.0 mg/kg p.o.,(66.52↑)* %
same,GSH,[4]; HC 2.0 mg/kg p.o.,371.69 ± 6.17 µg/g and 371.69 ± 6.117 µg/g
same,GSH percentage activity against STZ Control group (stimulation),[4]; HC 4.0 mg/kg p.o.,(67.04↑)* %
same,GSH,[4]; HC 4.0 mg/kg p.o.,372.87 ± 3.18 µg/g
same,IC50,[2],1.3 µg/mL
same,expression of IFN-γ in CD3+ T cells,IFN-γ; HC 2 mg/kg p.o. (STZ Control 18.18±0.97%),12.08±0.21%
same,expression of IFN-γ in CD3+ T cells,IFN-γ; HC 4 mg/kg p.o. (STZ Control 18.18±0.97%),11.91±0.87%
same,mean percentage of CD19+ cells in the lymphocyte population,CD19+ cell population; HC 0.5 mg/kg p.o. (STZ Control 27.08±2.77%),21.43±1.39%
same,mean percentage of CD19+ cells in the lymphocyte population,CD19+ cell population; HC 1 mg/kg p.o. (STZ Control 27.08±2.77%),17.08±2.09%
same,mean percentage of CD19+ cells in the lymphocyte population,CD19+ cell population; HC 2 mg/kg p.o. (STZ Control 27.08±2.77%),16.97±1.88%
same,mean percentage of CD19+ cells in the lymphocyte population,CD19+ cell population; HC 4 mg/kg p.o. (STZ Control 27.08±2.77%),16.01±1.07%
same,initial latency,ICV STZ treated rats; HC 0.5 mg/kg p.o.,12.21 ± 1.42 s
same,initial latency,ICV STZ treated rats; HC 1 mg/kg p.o.,17.33 ± 2.6 s
same,mean retention latency,ICV STZ treated rats; HC 1 mg/kg p.o.,291.87 ± 25.66 s
same,initial latency,ICV STZ treated rats; HC 2 mg/kg p.o.,15.92 ± 1.09 s
same,mean retention latency,ICV STZ treated rats; HC 2 mg/kg p.o.,301.09 ± 13.67 s
same,initial latency,ICV STZ treated rats; HC 4 mg/kg p.o.,18.21 ± 2.96 s
